In BindingDB's records for doi:10.7270/Q2KD1WBN (Burnham Center For Chemical Genomics, 2010):

Target: Envelope glycoprotein gp160 (Human immunodeficiency virus 1, UniProt Q6QLK5)
Test: blockers of HIV fusion peptide binding, cell-free – biochemical, fluorescence quenching, SAR follow-up (AID 434967)

Chain of Envelope glycoprotein gp160 (Q6QLK5 whole entry, the tested form may be a part): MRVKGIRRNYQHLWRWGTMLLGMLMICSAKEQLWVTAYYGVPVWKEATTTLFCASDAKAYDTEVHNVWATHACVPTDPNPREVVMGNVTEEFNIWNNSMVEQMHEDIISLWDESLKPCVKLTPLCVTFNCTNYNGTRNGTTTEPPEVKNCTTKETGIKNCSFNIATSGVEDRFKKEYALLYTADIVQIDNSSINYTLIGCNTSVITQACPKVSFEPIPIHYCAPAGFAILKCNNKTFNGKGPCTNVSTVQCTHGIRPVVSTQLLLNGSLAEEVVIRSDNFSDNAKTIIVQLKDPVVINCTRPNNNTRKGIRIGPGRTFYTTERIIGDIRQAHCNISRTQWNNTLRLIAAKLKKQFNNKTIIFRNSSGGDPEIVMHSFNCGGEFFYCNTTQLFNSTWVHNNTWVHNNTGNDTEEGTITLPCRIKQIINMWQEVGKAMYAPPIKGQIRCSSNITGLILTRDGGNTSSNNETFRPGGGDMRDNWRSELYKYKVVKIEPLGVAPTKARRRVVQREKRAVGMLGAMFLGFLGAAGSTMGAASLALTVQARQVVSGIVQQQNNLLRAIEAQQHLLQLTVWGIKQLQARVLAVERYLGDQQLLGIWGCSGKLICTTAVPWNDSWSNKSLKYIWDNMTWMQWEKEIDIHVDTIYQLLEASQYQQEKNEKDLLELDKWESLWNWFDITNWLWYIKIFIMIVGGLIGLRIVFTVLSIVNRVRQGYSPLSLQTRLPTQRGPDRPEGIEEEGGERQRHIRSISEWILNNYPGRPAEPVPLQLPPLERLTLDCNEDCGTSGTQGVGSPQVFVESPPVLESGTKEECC

| SMILES | IC50 [µM] |
| --- | --- |
| O=C(O)CCCN1C(=O)/C(=C/c2ccc(-c3nc4ccccc4s3)o2)SC1=S [4-[(5Z)-5-[[5-(1,3-benzothiazol-2-yl)furan-2-yl]methylidene]-4-oxo-2-sulfanylidene-1,3-thiazolidin-3-yl]butanoic acid] | 1.76 |
| O=C(O)c1cc(N=NCc2ccc(-c3ccccc3)cc2)ccc1Cl [MLS-0319671.0001] | 14.8 |
| CCS(=O)(=O)C1=NSC2=NC(=O)/C(=C\c3ccc(OS(=O)(=O)c4ccccc4)cc3)C(=N)N21 [MLS-0362442.0001] | 11.5 |
| CC(C)S(=O)(=O)C1=NSC2=NC(=O)/C(=C\c3ccc(-c4ccccc4)o3)C(=N)N21 [(6Z)-5-imino-6-[(5-phenyl-2-furanyl)methylidene]-3-propan-2-ylsulfonyl-[1,2,4]thiadiazolo[4,5-a]pyrimidin-7-one] | 9.65 |
| CC(C)S(=O)(=O)C1=NSC2=NC(=O)/C(=C\c3ccc(-c4cccc(C(=O)O)c4)o3)C(=N)N21 [3-[5-[(Z)-(5-imino-7-oxo-3-propan-2-ylsulfonyl-[1,2,4]thiadiazolo[4,5-a]pyrimidin-6-ylidene)methyl]furan-2-yl]benzoic acid] | 4.49 |
| Cc1ccc(-n2c(O)c(C=Nc3ccccc3-c3n[nH]c(=S)[nH]c3=O)c3ccccc3c2=O)c(C)c1 [SMR000370443] | 5.76 |
| COC(=O)c1sc(-c2ccc(C(C)(C)C)cc2)cc1NC(=O)c1ccccc1C(=O)O [SMR000456098] | 5.94 |
| CS(=O)(=O)C1=NSC2=NC(=O)/C(=C\c3ccc(OS(=O)(=O)c4ccccc4)cc3)C(=N)N21 | 7.73 |
| Cc1ccc(-n2cccc2/C=C2/C(=N)N3C(=NC2=O)SN=C3S(C)(=O)=O)cc1Cl [MLS000583163] | 5.76 |
| Cc1c(Cl)cccc1NS(=O)(=O)c1ccc2c(c1)C1C=CCC1C(c1ccc(C(=O)O)cc1)N2 (stereo not drawn) | 3.16 |
| CC(C)(C)c1cc(-c2cs/c(=N\c3ccccc3)n2Cc2ccc(C(=O)O)cc2)cc(C(C)(C)C)c1O [4-[[4-(3,5-ditert-butyl-4-oxidanyl-phenyl)-2-phenylazanyl-1,3-thiazol-3-ium-3-yl]methyl]benzoic acid;bromide] | 27.3 |
| O=c1/c(=C/c2cc([N+](=O)[O-])cc([N+](=O)[O-])c2O)sc2nc3ccccc3n12 [2-[(2-hydroxy-3,5-dinitrophenyl)methylidene]-1-thiazolo[3,2-a]benzimidazolone] | 2.61 |
| COc1cc(CN=Nc2ccc(Cl)c(C(=O)O)c2)ccc1OC(=O)c1ccc(F)cc1 [2-chloro-5-[2-[[4-[(4-fluorophenyl)-oxomethoxy]-3-methoxyphenyl]methylidene]hydrazinyl]benzoic acid] | 8.03 |
| CSc1nnc(-c2ccccc2N=Cc2c(C)[nH]n(-c3ccc4ccccc4c3)c2=O)c(=O)[nH]1 [MLS000540062] | 9.84 |
| Cc1cc(C)cc(-n2cccc2/C=C2/C(=N)N3C(=NC2=O)SN=C3S(C)(=O)=O)c1 [(6Z)-5-azanylidene-6-[[1-(3,5-dimethylphenyl)pyrrol-2-yl]methylidene]-3-methylsulfonyl-[1,2,4]thiadiazolo[4,5-a]pyrimidin-7-one] | 7.81 |
| COc1cc(/C=C2\SC(=O)N(c3ccccc3Cl)C2=O)cc([N+](=O)[O-])c1O | 9.04 |
| COc1ccc(C(=O)Oc2ccc(CN=Nc3ccc(Cl)c(C(=O)O)c3)cc2OC)cc1 [SMR000589907] | 5.16 |
| COc1cc(/C=N/NS(=O)(=O)c2ccc3ccccc3c2)ccc1OCc1ccc(C(=O)O)cc1 [MLS-0298745.0001] | 7.76 |
| Cc1ccc(S(=O)(=O)Oc2ccc(/C=C3/C(=N)N4C(=NC3=O)SN=C4S(C)(=O)=O)cc2)cc1 [4-methylbenzenesulfonic acid [4-[(Z)-(5-imino-3-methylsulfonyl-7-oxo-[1,2,4]thiadiazolo[4,5-a]pyrimidin-6-ylidene)methyl]phenyl] ester] | 6.51 |

| SMILES | IC50 [µM] |
| --- | --- |
| Cc1c2c(=O)n(-c3nc4ccccc4s3)[nH]c2cc(=O)n1Cc1ccccc1 [MLS000762993] | 10.1 |
| COc1cc(CN=Nc2ccc(Cl)c(C(=O)O)c2)ccc1OC(=O)c1ccccc1F [SMR000589905] | 25.9 |
| N#C/C(=C\C1C=CC(=O)C([N+](=O)[O-])=C1)c1nc2ccccc2s1 (stereo not drawn) | 6.25 |
| CS(=O)(=O)C1=NSC2=NC(=O)/C(=C\c3cccn3-c3ccc(Cl)cc3)C(=N)N21 | 5.7 |
| O=C1NC(=S)N(c2ccc(F)cc2)C(=O)C1=Cc1ccoc1 [SMR000270574] | 8.59 |
| O=C(O)c1ccccc1C(=O)N(Cc1cccc(Oc2ccc(Cl)cc2)c1)[C@H]1CCCc2ccccc21 [2-[[[3-(4-chlorophenoxy)phenyl]methyl-[(1S)-1,2,3,4-tetrahydronaphthalen-1-yl]amino]-oxomethyl]benzoic acid] | 2.6 |
| O=C1Nc2ccc([N+](=O)[O-])cc2C1=NNc1ccccc1C(=O)O [2-[2-(5-nitro-2-oxidanylidene-indol-3-yl)hydrazinyl]benzoic acid] | 13.3 |
| CC(C)NC(=O)c1sc(=S)n2c1[nH]c(=O)c1ccc(C(=O)NCCc3ccc(Cl)cc3)cc12 [N8-[2-(4-chlorophenyl)ethyl]-5-oxidanylidene-N3-propan-2-yl-1-sulfanylidene-4H-[1,3]thiazolo[3,4-a]quinazoline-3,8-dicarboxamide] | 9.56 |
| CCC(Sc1nc2ccsc2c(=O)n1Cc1ccc(C(=O)O)cc1)C(=O)Nc1ccc(C)c(Cl)c1 (stereo not drawn) | 8.01 |
| CCC(C)(C)C1CCc2c(sc(NC(=O)c3ccccc3C(=O)O)c2C#N)C1 (stereo not drawn) [2-[[3-cyano-6-(2-methylbutan-2-yl)-4,5,6,7-tetrahydro-1-benzothiophen-2-yl]carbamoyl]benzoic acid] | 6.1 |
| O=[N+]([O-])c1cc([N+](=O)[O-])c2oc(-c3ccccc3)c(Br)c2c1O [3-bromanyl-5,7-dinitro-2-phenyl-1-benzofuran-4-ol] | 14.5 |
| O=C1NC(=S)N(c2ccc(F)cc2)C(=O)C1=Cc1ccco1 [(5E)-1-(4-fluorophenyl)-5-(2-furanylmethylidene)-2-sulfanylidene-1,3-diazinane-4,6-dione] | 10 |
| COc1ccc(OC)c(N2C(=O)C(=Cc3ccco3)C(=O)NC2=S)c1 [MLS001197216] | 6.06 |
| COc1ccccc1NS(=O)(=O)c1cccc(-n2c(O)c(C=Nc3ccccc3C(=O)O)c3ccccc3c2=O)c1 [MLS000776209] | 9.64 |
| CCOC(=O)C1=C(C)N=c2sc(=Cc3ccc(OCC(=O)O)cc3)c(=O)n2C1c1ccc(OC(C)C)cc1 (stereo not drawn) [2-[4-[[6-ethoxycarbonyl-7-methyl-3-oxo-5-(4-propan-2-yloxyphenyl)-5H-[1,3]thiazolo[3,2-a]pyrimidin-2-ylidene]methyl]phenoxy]acetic acid] | 6.64 |
| CCOC(=O)c1sc(N2C(=O)C(=O)C(C(=O)c3ccc(C)o3)C2c2cccc([N+](=O)[O-])c2)nc1C (stereo not drawn) [ethyl 4-methyl-2-[3-(5-methylfuran-2-yl)carbonyl-2-(3-nitrophenyl)-4-oxidanyl-5-oxidanylidene-2H-pyrrol-1-yl]-1,3-thiazole-5-carboxylate] | 10.5 |
| O=C1NC(=S)N(C2CCCCC2)C(=O)C1=CNNC(=O)c1ccccc1O [N'-[(E)-(1-cyclohexyl-4,6-dioxo-2-sulfanylidene-1,3-diazinan-5-ylidene)methyl]-2-hydroxybenzohydrazide] | 9 |
| CC1(C)CC(=O)C2=C(C1)c1c(ccc3ccccc13)NC2c1cc([N+](=O)[O-])cc([N+](=O)[O-])c1O (stereo not drawn) [MLS000716265] | 13.5 |
| CCOc1cc(/C=C2\SC(=O)N(CC(=O)Nc3ccccc3F)C2=O)cc([N+](=O)[O-])c1O | 4.32 |
